The record followed here is patent publication US20260092061A1, “COMPOUNDS FOR TARGETED PROTEIN DEGRADATION” (Amphista Therapeutics Limited, priority 2022, published 2026).

Structures are written as SMILES. Where two headings read alike, the source gives them in different places. Bounds are passed on as bounds.

One may read the Dmax as the largest share of the target that was removed. The DC50 is the midpoint of the concentration-degradation curve.

Assay type in all cases: cell-based
For assay [1], the target named is T1, BRD4 (Homo sapiens, UniProt O60885).
T1 construct: HiBiT-BRD4 HEK293 CRISPR CPM (Promega CS302312); host or cells: HEK293, CRISPR-edited (HiBiT at the BRD4 locus)
Briefly: BRD4 degradation, HiBiT-BRD4 HEK293 CRISPR CPM cells, NanoGlo Lytic Endpoint assay (Assay Protocol 1). The settings on record: for Dmax: HEK293, Table 5; for DC50: Table 5. The method, then: HiBiT-BRD9 KI HEK293 (LgBiT) Cells (Promega CS3023412) were seeded at 8000 cells per well (38 μL) in sterile white bottom 384 well plates (Invitrogen 164610 or Greiner 781080) and incubated overnight at 37° C. with 5% CO2. The next day, compounds were prepared at 1000× final concentration in DMSO and diluted 1:100 in media (DMEM PAN Biotech P04-03550+10% FBS ATCC 302025). 4 μL compound was added to each well of the cell plate and incubated for 6 h at 37° C. with 5% CO2 BRD9 expression was quantified using the NanoGlo Lytic Endpoint assay (Promega N3050). The lytic buffer was equilibrated to room temperature for 10-15 min before lytic reagent was prepared by adding substrate (1:50) and LgBit protein (1:100) in lytic buffer. 40 μL lytic reagent mix was added to each well of the cel plate and plates were centrifuged briefly at ˜50g. Plates were incubated with shaking (350 RPM) for 12-24 min before reading using the LUM plus module of a BMG Pherastar FSX. Data was analysed using Dotmatics software and % BRD9 remaining was calculated by normalisation to average data from high and low control wells (DMSO treated cels and no cells respectively).
[…] was determined in line with the procedure as outlined above for BRD9, HiBiT-BRD4 HEK293 CRISPR CPM (Promega CS302312) were seeded at 8000 CPW (36 uL) in sterile white bottom 384 well plates (Invitrogen 164610 or Greiner 781080) and incubated overnight at 37° C. with 5% CO2.
On the technique in general: With HiBiT, luminescence reflects the tagged protein that the partner subunit can reach.

The target in assay [2] is T2, BRD9 (Homo sapiens, UniProt Q9H8M2).
T2 sequence (Q9H8M2 1-597): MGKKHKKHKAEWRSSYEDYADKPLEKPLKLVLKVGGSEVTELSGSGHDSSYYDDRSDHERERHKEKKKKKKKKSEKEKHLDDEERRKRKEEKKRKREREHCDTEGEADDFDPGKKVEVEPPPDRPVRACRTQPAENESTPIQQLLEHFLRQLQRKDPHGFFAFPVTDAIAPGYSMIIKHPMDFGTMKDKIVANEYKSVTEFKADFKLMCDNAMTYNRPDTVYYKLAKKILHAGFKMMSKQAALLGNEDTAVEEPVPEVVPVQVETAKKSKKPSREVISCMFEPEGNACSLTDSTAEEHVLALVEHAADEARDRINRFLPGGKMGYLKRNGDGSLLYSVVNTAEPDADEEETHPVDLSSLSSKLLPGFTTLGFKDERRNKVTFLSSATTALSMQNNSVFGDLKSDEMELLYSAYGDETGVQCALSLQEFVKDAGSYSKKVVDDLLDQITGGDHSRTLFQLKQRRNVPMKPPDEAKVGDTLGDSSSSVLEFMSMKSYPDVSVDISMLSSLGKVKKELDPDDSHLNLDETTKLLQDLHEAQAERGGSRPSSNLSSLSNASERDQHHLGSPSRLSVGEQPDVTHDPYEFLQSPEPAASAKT
Kind of assay: BRD9 degradation, HiBiT-BRD9 KI HEK293 (LgBiT) cells, NanoGlo Lytic Endpoint assay (Assay Protocol 1). The settings on record: for Dmax / Dmax at 1 µM: HEK293. In a few lines:
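HiBiT-tagged BRD9 knock-in HEK293 (LgBiT) cells exposed to compounds for 6 h at 37 °C, 5% CO2. Residual BRD9 measured by HiBiT lytic luminescence. % BRD9 remaining normalised to DMSO-treated cells (high) and no-cell wells (low).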

For assay [3], the target named is T2, BRD9. The description is as above. The settings on record: Table 3; assay 1; 5 h of treatment.
Assay [4] has as its target T1, BRD4. Briefly: BRD4 degradation, HiBiT-BRD4 HEK293 CRISPR CPM cells, NanoGlo Lytic Endpoint assay (Assay Protocol 1). The settings on record: HEK293; Table 3; assay 1; 1 μM compound at 5 h of treatment.
The mark [5] stands for this setting: Table 4, BRD9 degradation, determined according to Assay Protocol 1, read-out: Dmax^1.
The mark [6] stands for this setting: Table 5, assay protocol 1, read-out: BRD9 Dmax (%).
The mark [7] stands for this setting: Table 4, BRD9 degradation, determined according to Assay Protocol 1, read-out: DC50^1.
[8] abbreviates: Table 5, assay protocol 1, read-out: BRD9 DC50.
[9] abbreviates: Table 2, BRD9 degradation, Assay Protocol 1, 1 μM compound at 6 h of treatment, read-out: Assay 1 Dmax.
Where [10] appears, read: Table 3, assay 1, 1 μM compound at 5 h of treatment, read-out: BRD9 Dmax (%).
[11] abbreviates: Table 2, BRD9 degradation, Assay Protocol 1, 6 h of treatment, read-out: Assay 1 DC50.

Consider `COc1cc(-c2cn(C)c(=O)c(C)c2C)cc(OC)c1CN1CC2CC1CN2C(=O)/C(C#N)=C/c1nccs1` (mixture of isomers) [BRD9i, (E/Z)-2-(5-(2,6-dimethoxy-4-(1,4,5-trimethyl-6-oxo-1,6-dihydropyridin-3-yl)benzyl)-2,5-diazabicyclo[2.2.1]heptane-2-carbonyl)-3-(thiazol-2-yl)acrylonitrile], for which the figures for the maximal degradation (Dmax) on BRD4 [1], on BRD9 [2] (setting [5]) and on BRD9 [2] (setting [6]) were 40 to 70%, 50 to 70% and 40 to 70%, respectively. Moreover, the values for the DC50 on BRD4 [1], at BRD9 [2] (setting [7]) and at BRD9 [2] (setting [8]) were above 1000 nM, 25 to 200 nM and 25 to 1000 nM, respectively.

With `COc1cc(-c2cn(C)c(=O)c3cnccc23)cc(OC)c1CN(C)Cc1cccc2c1CCN(C(=O)/C(C#N)=C/c1cccc(Br)n1)C2C` (mixture of isomers) [Compound A50], the DC50 at BRD9 [3] and on BRD9 [2] (setting [11]) was below 1.25 nM each time. This compound also registered a Dmax on BRD4 [4] below 25%. For the same compound, the greatest degradation seen (Dmax) at 1 µM on BRD9 [2] (setting [9]) and at BRD9 [2] (setting [10]) was above 75% each time.

For `COc1cc(-c2cn(C)c(=O)c(C)c2C)cc(OC)c1CN(C)C1CCN(C(=O)/C(C#N)=C/C(C)(C)C)CC1` [BRD9d, (E/Z)-2-(4-((2,6-dimethoxy-4-(1,4,5-trimethyl-6-oxo-1,6-dihydropyridin-3-yl)benzyl)(methyl)amino)piperidine-1-carbonyl)-4,4-dimethylpent-2-enenitrile], the Dmax on BRD4 [1] is below 25%; on BRD9 [2] (setting [5]), above 70%; at BRD9 [2] (setting [6]), 70 to 75%. Further, the DC50 on BRD4 [1] is above 1000 nM; at BRD9 [2] (setting [7]), 25 to 200 nM; at BRD9 [2] (setting [8]), 10 to 25 nM.

Take `COc1cc(-c2cn(C)c(=O)c(C)c2C)cc(OC)c1CN1CC2CC(C1)N2Cc1cccc2c1CCN(C(=O)/C(C#N)=C/C(C)(C)C)C2C` (mixture of isomers) [Compound A71, (E/Z)-2-(5-((3-(2,6-dimethoxy-4-(1,4,5-trimethyl-6-oxo-1,6-dihydropyridin-3-yl)benzyl)-3,6-diazabicyclo[3.1.1]heptan-6-yl)methyl)-1-methyl-1,2,3,4-tetrahydroisoquinoline-2-carbonyl)-4,4-dimethylpent-2-enenitrile]: the DC50 on BRD9 [3] and on BRD9 [2] (setting [11]) was 1.25 to 10 nM each time. At BRD4 [4], this compound showed a Dmax of 25 to 40%. Further, the Dmax at 1 µM on BRD9 [2] (setting [9]) and at BRD9 [2] (setting [10]) was 70 to 75% each time.

Consider `COc1cc(-c2cn(C)c(=O)c(C)c2C)cc(OC)c1CN1CCN(Cc2cccc3c2CCN(C(=O)/C(C#N)=C/c2cccc(Br)n2)C3C)CC1` (mixture of isomers) [Compound A16, (E/Z)-3-(6-bromopyridin-2-yl)-2-(5-((4-(2,6-dimethoxy-4-(1,4,5-trimethyl-6-oxo-1,6-dihydropyridin-3-yl)benzyl)piperazin-1-yl)methyl)-1-methyl-1,2,3,4-tetrahydroisoquinoline-2-carbonyl) acrylonitrile], for which the 50% degradation concentration (DC50) on BRD9 [3] and on BRD9 [2] (setting [11]) was 1.25 to 10 nM each time. For the same compound, on BRD4 [4], the Dmax was below 25%. The Dmax at 1 µM at BRD9 [2] (setting [9]) and at BRD9 [2] (setting [10]) was 70 to 75% throughout.

`COc1cc(-c2cn(C)c(=O)c(C)c2C)cc(OC)c1CN1CCN(Cc2cccc3c2CCN(C(=O)/C(C#N)=C/c2nccs2)C3C)CC1` (mixture of isomers) [Compound A4, (E/Z)-2-(5-((4-(2,6-dimethoxy-4-(1,4,5-trimethyl-6-oxo-1,6-dihydropyridin-3-yl)benzyl)piperazin-1-yl)methyl)-1-methyl-1,2,3,4-tetrahydroisoquinoline-2-carbonyl)-3-(thiazol-2-yl)acrylonitrile]: the 50% degradation concentration (DC50) on BRD9 [3] and on BRD9 [2] (setting [11]) was below 1.25 nM throughout. The maximal degradation (Dmax) on BRD4 [4] is below 25%. Also, the Dmax at 1 µM at BRD9 [2] (setting [9]) and on BRD9 [2] (setting [10]) was 70 to 75% throughout.

Consider `COc1cc(-c2cn(C)c(=O)c(C)c2C)cc(OC)c1CN1C2CC1CN(C(=O)/C(C#N)=C/c1cccc(Br)n1)C2` (mixture of isomers) [BRD9o, (E/Z)-3-(6-bromopyridin-2-yl)-2-(6-(2,6-dimethoxy-4-(1,4,5-trimethyl-6-oxo-1,6-dihydropyridin-3-yl)benzyl)-3,6-diazabicyclo[3.1.1]heptane-3-carbonyl)acrylonitrile], for which the Dmax at BRD4 [1] is 25 to 40%; on BRD9 [2] (setting [5]), above 70%; at BRD9 [2] (setting [6]), above 75%. The half-maximal degradation concentration (DC50) on BRD4 [1] was above 1000 nM; at BRD9 [2] (setting [8]), 10 to 25 nM.

Regarding `COc1cc(-c2cn(C)c(=O)c(C)c2C)cc(OC)c1CN1CCCN(C(=O)/C(C#N)=C/C(C)(C)C)CC1` [BRD9c, (E/Z)-2-(4-(2,6-dimethoxy-4-(1,4,5-trimethyl-6-oxo-1,6-dihydropyridin-3-yl)benzyl)-1,4-diazepane-1-carbonyl)-4,4-dimethylpent-2-enenitrile], the values for the Dmax at BRD4 [1] and at BRD9 [2] (setting [5]) were above 75% and above 70%, respectively. Besides, the results for the DC50 at BRD4 [1] and at BRD9 [2] (setting [7]) were 25 to 1000 nM and below 25 nM, respectively.

Take `COc1cc(-c2cn(C)c(=O)c(C)c2C)cc(OC)c1CN1CCN(C(=O)/C(C#N)=C/c2cccc(Br)n2)CC1` [BRD9h, (E/Z)-3-(6-bromopyridin-2-yl)-2-(4-(2,6-dimethoxy-4-(1,4,5-trimethyl-6-oxo-1,6-dihydropyridin-3-yl)benzyl)piperazine-1-carbonyl)acrylonitrile]: the figures for the Dmax at BRD4 [1], at BRD9 [2] (setting [5]) and on BRD9 [2] (setting [6]) were 40 to 70%, above 70% and above 75%, respectively. The DC50 at BRD4 [1] is 25 to 1000 nM; on BRD9 [2] (setting [7]), below 25 nM; on BRD9 [2] (setting [8]), below 1.25 nM.

As for `COc1cc(-c2cn(C)c(=O)c(C)c2C)cc(OC)c1CN1CCN(C(=O)/C(C#N)=C/C(C)(C)C)C2(CC2)C1` [BRD9e, (E/Z)-2-(7-(2,6-dimethoxy-4-(1,4,5-trimethyl-6-oxo-1,6-dihydropyridin-3-yl)benzyl)-4,7-diazaspiro[2,5]octane-4-carbonyl)-4,4-dimethylpent-2-enenitrile], on BRD4 [1], the greatest degradation seen (Dmax) is above 75% and the DC50 is 25 to 1000 nM. The 50% degradation concentration (DC50) on BRD9 [2] (setting [7]) was above 200 nM.

Turning to `COc1cc(-c2cn(C)c(=O)c(C)c2C)cc(OC)c1CN(C)C(=O)/C(C#N)=C/C(C)(C)C` [BRD9ac, (E/Z)-2-cyano-N-(2,6-dimethoxy-4-(1,4,5-trimethyl-6-oxo-1,6-dihydropyridin-3-yl)benzyl)-N,4,4-trimethylpent-2-enamide], the Dmax at BRD4 [1] was in the range of 25 to 40%; on BRD9 [2] (setting [5]), 30 to 50%. In addition, the DC50 on BRD4 [1] was above 1000 nM; at BRD9 [2] (setting [7]), 25 to 200 nM.

Consider `COc1cc(-c2cn(C)c(=O)c(C)c2C)cc(OC)c1CN1CCN(C(=O)/C(C#N)=C/C(C)(C)C)CC1` [BRD9a, (E/Z)-2-(4-(2,6-dimethoxy-4-(1,4,5-trimethyl-6-oxo-1,6-dihydropyridin-3-yl)benzyl)piperazine-1-carbonyl)-4,4-dimethylpent-2-enenitrile], for which the Dmax is above 75% at BRD4 [1], 50 to 70% on BRD9 [2] (setting [5]) and 40 to 70% at BRD9 [2] (setting [6]). The DC50 at BRD4 [1] is 25 to 1000 nM; at BRD9 [2] (setting [7]), above 200 nM; on BRD9 [2] (setting [8]), 25 to 1000 nM.

For `COc1cc(-c2cn(C)c(=O)c(C)c2C)cc(OC)c1CN1CC2CC1CN2C(=O)/C(C#N)=C/C(C)(C)C` (mixture of isomers) [BRD9b], the greatest degradation seen (Dmax) on BRD4 [1] was above 75%; at BRD9 [2] (setting [5]), above 70%; on BRD9 [2] (setting [6]), 70 to 75%. Also, the values for the 50% degradation concentration (DC50) at BRD4 [1], on BRD9 [2] (setting [7]) and on BRD9 [2] (setting [8]) were 25 to 1000 nM, below 25 nM and 10 to 25 nM, respectively.
